Measurements from PMC6450719 (Biochimica et biophysica acta. Proteins and proteomics, 2018).

Molecular target: T1, human islet amyloid polypeptide (hIAPP, amylin) (Homo sapiens, UniProt P10997)
T1 sequence (P10997 34-70 limits assumed): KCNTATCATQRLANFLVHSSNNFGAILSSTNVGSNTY
Test: ITC
Assay type: binding

Kd: ~1100 nM
Compound: O=C(O[C@@H]1Cc2c(O)cc(O)cc2O[C@@H]1c1cc(O)c(O)c(O)c1)c1cc(O)c(O)c(O)c1 [EGCG]
